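Exposure lasted 48 hours, with cells grown in 96-well plates and compounds tested at five concentrations. TGI denotes the concentration required for complete inhibition of growth.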
Experiments:
Assay in all cases: NCI tumour cell line growth inhibition, 48 h
[1] = tested on: UO-31 renal
[2] = tested on: SK-MEL-28 melanoma
[3] = tested on: NCI-H522 lung
[4] = tested on: SW-620 colon
[5] = tested on: SF-295 CNS
[6] = tested on: UACC-62 melanoma
[7] = tested on: SNB-78 CNS
[8] = tested on: SF-539 CNS
[9] = tested on: 786-0 renal
[10] = tested on: A498 renal
[11] = tested on: HOP-92 NSCLC
[12] = tested on: DMS 273 small cell lung
[13] = tested on: HCT-15 colon
[14] = tested on: LOX IMVI melanoma
[15] = tested on: LXFL 529 NSCLC
[16] = tested on: MALME-3M melanoma
[17] = tested on: M14 melanoma
[18] = tested on: CCRF-CEM leukemia
[19] = tested on: ACHN renal
[20] = tested on: HT29 colon
[21] = tested on: OVCAR-3 ovarian
[22] = tested on: A549 NSCLC
[23] = tested on: OVCAR-4 ovarian
[24] = tested on: SK-OV-3 ovarian
[25] = tested on: UACC-257 melanoma
[26] = tested on: DLD-1 colon
[27] = tested on: SNB-19 CNS
[28] = tested on: SK-MEL-2 melanoma
[29] = tested on: SN12C renal
[30] = tested on: OVCAR-5 ovarian
[31] = tested on: TK-10 renal
[32] = tested on: U251 CNS
[33] = tested on: CAKI-1 renal
[34] = tested on: HOP-62 NSCLC
[35] = tested on: HCC-2998 colon
[36] = tested on: KM20L2 colon
[37] = tested on: RXF-631 renal
[38] = tested on: HCT-116 colon
[39] = tested on: M19-MEL melanoma
[40] = tested on: NCI-H460 lung
[41] = tested on: XF 498 CNS
[42] = tested on: SF-268 CNS
[43] = tested on: RXF 393 renal
[44] = tested on: OVCAR-8 ovarian
[45] = tested on: KM12 colon
[46] = tested on: COLO 205 colon
[47] = tested on: IGROV1 ovarian
[48] = tested on: SK-MEL-5 melanoma
[49] = tested on: SNB-75 CNS
[50] = tested on: K-562 leukemia
[51] = tested on: RPMI-8226 leukemia
[52] = tested on: DMS 114 small cell lung
[53] = tested on: EKVX NSCLC
[54] = tested on: NCI-H23 lung
[55] = tested on: MOLT-4 leukemia
[56] = tested on: NCI-H226 lung
[57] = tested on: HOP-18 NSCLC
[58] = tested on: HL-60(TB) leukemia
[59] = tested on: SR leukemia

Q: `CC(=O)NC(CCCN(Cc1ccccc1)C(=O)N(C)N=O)C(=O)NCc1ccccc1` (stereo not drawn) was tested. Which TGI [1] did it give?
A: Its TGI is over 100 µM.

Q: What about the TGI [2] of the same molecule?
A: Its TGI is over 100 µM.

Q: And the TGI [3]?
A: Its TGI is over 100 µM.

Q: And the TGI [4]?
A: Its TGI is over 100 µM.

Q: What about the TGI [5] of the same molecule?
A: The TGI was over 100 µM.

Q: What about the TGI [6] of the same molecule?
A: Its TGI is over 100000 nM.

Q: What about the TGI [7] of the same molecule?
A: The TGI was over 100 µM.

Q: And the TGI [8]?
A: Its TGI is over 100 µM.

Q: And the TGI [9]?
A: Its TGI is over 100 µM.

Q: What about the TGI [10] of the same molecule?
A: The TGI was over 100 µM.

Q: What about the TGI [11] of the same molecule?
A: The TGI was over 100 µM.

Q: What about the TGI [12] of the same molecule?
A: Its TGI is over 100000 nM.

Q: What about the TGI [13] of the same molecule?
A: The TGI was over 100 µM.

Q: And the TGI [14]?
A: Its TGI is over 100000 nM.

Q: And the TGI [15]?
A: Its TGI is over 100 µM.

Q: And the TGI [16]?
A: The TGI was over 100 µM.

Q: And the TGI [17]?
A: Its TGI is over 100 µM.

Q: What about the TGI [18] of the same molecule?
A: The TGI was over 100 µM.

Q: What about the TGI [19] of the same molecule?
A: Its TGI is over 100 µM.

Q: And the TGI [20]?
A: Its TGI is over 100 µM.

Q: What about the TGI [21] of the same molecule?
A: The TGI was over 100 µM.

Q: And the TGI [22]?
A: Its TGI is over 100 µM.

Q: And the TGI [23]?
A: Its TGI is over 100 µM.

Q: What about the TGI [24] of the same molecule?
A: Its TGI is over 100 µM.

Q: And the TGI [25]?
A: The TGI was over 100 µM.

Q: And the TGI [26]?
A: Its TGI is over 100 µM.

Q: And the TGI [27]?
A: Its TGI is over 100 µM.

Q: And the TGI [28]?
A: Its TGI is over 100 µM.

Q: What about the TGI [29] of the same molecule?
A: The TGI was over 100 µM.

Q: What about the TGI [30] of the same molecule?
A: The TGI was over 100 µM.

Q: And the TGI [31]?
A: The TGI was over 100 µM.

Q: And the TGI [32]?
A: Its TGI is over 100 µM.

Q: What about the TGI [33] of the same molecule?
A: Its TGI is over 100 µM.

Q: What about the TGI [34] of the same molecule?
A: The TGI was over 100 µM.

Q: And the TGI [35]?
A: Its TGI is over 100 µM.

Q: And the TGI [36]?
A: Its TGI is over 100 µM.

Q: And the TGI [37]?
A: The TGI was over 100 µM.

Q: And the TGI [38]?
A: Its TGI is over 100 µM.

Q: And the TGI [39]?
A: The TGI was over 100 µM.

Q: And the TGI [40]?
A: Its TGI is over 100000 nM.

Q: What about the TGI [41] of the same molecule?
A: Its TGI is over 100 µM.

Q: And the TGI [42]?
A: Its TGI is over 100 µM.

Q: And the TGI [43]?
A: The TGI was over 100000 nM.

Q: And the TGI [44]?
A: Its TGI is over 100 µM.

Q: And the TGI [45]?
A: The TGI was over 100 µM.

Q: What about the TGI [46] of the same molecule?
A: Its TGI is over 100 µM.

Q: And the TGI [47]?
A: Its TGI is over 100 µM.

Q: And the TGI [48]?
A: Its TGI is over 100 µM.

Q: And the TGI [49]?
A: Its TGI is 91 µM.

Q: And the TGI [50]?
A: Its TGI is over 100 µM.

Q: What about the TGI [51] of the same molecule?
A: The TGI was over 100 µM.

Q: And the TGI [52]?
A: The TGI was over 100 µM.

Q: And the TGI [53]?
A: Its TGI is over 100 µM.

Q: And the TGI [54]?
A: The TGI was over 100 µM.

Q: What about the TGI [55] of the same molecule?
A: The TGI was over 100 µM.

Q: And the TGI [56]?
A: The TGI was over 100 µM.

Q: With `C/C(=N\NS(=O)(=O)c1ccc([N+](=O)[O-])cc1)c1ccc[n+]([O-])n1` as the molecule, how does the TGI [1] read?
A: Its TGI is 6.74 µM.

Q: What about the TGI [57] of the same molecule?
A: Its TGI is 68.2 µM.

Q: And the TGI [3]?
A: The TGI was 4.51 µM.

Q: And the TGI [4]?
A: Its TGI is 7.99 µM.

Q: What about the TGI [5] of the same molecule?
A: Its TGI is 7.05 µM.

Q: What about the TGI [6] of the same molecule?
A: Its TGI is 2590 nM.

Q: What about the TGI [7] of the same molecule?
A: Its TGI is 51.8 µM.

Q: What about the TGI [8] of the same molecule?
A: Its TGI is 4.94 µM.

Q: What about the TGI [9] of the same molecule?
A: The TGI was 15.6 µM.

Q: And the TGI [10]?
A: Its TGI is 4 µM.

Q: What about the TGI [11] of the same molecule?
A: Its TGI is 8.3 µM.

Q: What about the TGI [12] of the same molecule?
A: Its TGI is 2740 nM.

Q: And the TGI [13]?
A: Its TGI is 24.9 µM.

Q: What about the TGI [14] of the same molecule?
A: Its TGI is 2150 nM.

Q: What about the TGI [15] of the same molecule?
A: The TGI was 6.7 µM.

Q: What about the TGI [16] of the same molecule?
A: Its TGI is 9.45 µM.

Q: What about the TGI [17] of the same molecule?
A: Its TGI is 4.84 µM.

Q: What about the TGI [18] of the same molecule?
A: Its TGI is over 30.1 µM.

Q: What about the TGI [19] of the same molecule?
A: Its TGI is over 21.7 µM.

Q: What about the TGI [20] of the same molecule?
A: The TGI was 3.98 µM.

Q: What about the TGI [21] of the same molecule?
A: Its TGI is 4.95 µM.

Q: What about the TGI [22] of the same molecule?
A: The TGI was over 100 µM.

Q: And the TGI [23]?
A: Its TGI is 5.69 µM.

Q: And the TGI [24]?
A: The TGI was 7.24 µM.

Q: And the TGI [25]?
A: Its TGI is 14.6 µM.

Q: And the TGI [58]?
A: Its TGI is over 22.6 µM.

Q: And the TGI [26]?
A: Its TGI is 20.3 µM.

Q: And the TGI [27]?
A: The TGI was 99.1 µM.

Q: And the TGI [28]?
A: The TGI was 3.84 µM.

Q: And the TGI [29]?
A: Its TGI is 12 µM.

Q: What about the TGI [59] of the same molecule?
A: Its TGI is 49 µM.

Q: And the TGI [30]?
A: Its TGI is 6.1 µM.

Q: What about the TGI [31] of the same molecule?
A: The TGI was 25.9 µM.

Q: What about the TGI [32] of the same molecule?
A: The TGI was 5.06 µM.

Q: What about the TGI [33] of the same molecule?
A: The TGI was 6.99 µM.

Q: What about the TGI [34] of the same molecule?
A: Its TGI is 4.7 µM.

Q: What about the TGI [35] of the same molecule?
A: The TGI was 22.3 µM.

Q: And the TGI [36]?
A: The TGI was 19.5 µM.

Q: And the TGI [38]?
A: The TGI was 3.9 µM.

Q: And the TGI [39]?
A: Its TGI is 5.05 µM.

Q: And the TGI [40]?
A: The TGI was 2750 nM.

Q: And the TGI [41]?
A: The TGI was 7.69 µM.

Q: What about the TGI [42] of the same molecule?
A: Its TGI is 7.65 µM.

Q: And the TGI [43]?
A: Its TGI is 2670 nM.

Q: And the TGI [44]?
A: Its TGI is 6.61 µM.

Q: And the TGI [45]?
A: The TGI was 33.8 µM.

Q: What about the TGI [46] of the same molecule?
A: Its TGI is 6.56 µM.

Q: What about the TGI [47] of the same molecule?
A: The TGI was 20.9 µM.

Q: What about the TGI [48] of the same molecule?
A: The TGI was 5.97 µM.

Q: And the TGI [49]?
A: The TGI was 5.36 µM.

Q: And the TGI [50]?
A: The TGI was over 65.4 µM.

Q: What about the TGI [51] of the same molecule?
A: Its TGI is 7.17 µM.

Q: What about the TGI [52] of the same molecule?
A: Its TGI is 4.75 µM.

Q: And the TGI [53]?
A: The TGI was 20.9 µM.

Q: What about the TGI [54] of the same molecule?
A: The TGI was 3.6 µM.

Q: And the TGI [55]?
A: The TGI was 11.5 µM.

Q: And the TGI [56]?
A: Its TGI is 3.91 µM.

— PubChem BioAssay (NCI)
